This passage reports Ki results from ChEMBL document CHEMBL1154296, “Potent inhibitors of beta-tryptase and human leukocyte elastase based on the MCoTI-II scaffold” (J Med Chem, 2009).

Test [1] is described as follows: Inhibition of trypsin by substrate hydrolysis based fluorescence assay.
Test [2] is described as follows: Inhibition of tryptase by substrate hydrolysis based fluorescence assay.
Another test deals with T1, Neutrophil elastase (Homo sapiens, UniProt P08246).
T1 sequence (P08246 whole entry): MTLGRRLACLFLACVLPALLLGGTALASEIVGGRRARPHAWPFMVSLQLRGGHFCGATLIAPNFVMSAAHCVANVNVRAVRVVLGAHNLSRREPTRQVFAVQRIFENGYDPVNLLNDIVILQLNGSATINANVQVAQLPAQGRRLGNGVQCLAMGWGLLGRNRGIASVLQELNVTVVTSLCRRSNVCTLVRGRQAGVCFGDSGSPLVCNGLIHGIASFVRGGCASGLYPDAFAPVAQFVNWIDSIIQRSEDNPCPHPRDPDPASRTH
The test is described as follows: Inhibition of human leukocyte elastase by substrate hydrolysis based fluorescence assay.

Starred links: 1 amine or outer side, 2 acyl side, 3 side chain; linkers in the order of their positions; H or OH if unused. Positions of bridges follow the written chain, without caps; N, C: chain ends. Non-standard residues stand in square brackets, D forms with d. Residues, ends and D or L forms follow the SMILES beside them. X2 = N=C(N)NCCC[C@@H](C(=O)[C@H](CCC(N)=O)N[*:1])C(=O)[*:2]; X3 = O=C(NC(=O)[*:2])[C@H](CO)N[*:1]

On to `CC[C@H](C)[C@@H]1NC(=O)[C@@H]2CSSC[C@@H]3NC(=O)[C@H](C(C)C)NC(=O)CNC(=O)CNC(=O)[C@H](CC(=O)O)NC(=O)[C@H](CO)NC(=O)CNC(=O)[C@H](CO)NC(=O)CNC(=O)[C@@H]4CSSC[C@H](NC(=O)[C@H](CC(=O)O)NC(=O)[C@H](CO)NC(=O)[C@H](CC(=O)O)NC(=O)[C@H](CCCNC(=N)N)NC(=O)[C@H](CCCNC(=N)N)NC(=O)[C@H](CSSC[C@H](NC1=O)C(=O)N[C@@H](CCCNC(=N)N)C(=O)NCC(=O)N[C@@H](CC(N)=O)C(=O)NCC(=O)N[C@@H](Cc1ccc(O)cc1)C(=O)N4)NC(=O)[C@@H](CCCNC(=N)N)C(=O)[C@H](CCC(N)=O)NC(=O)[C@H](CC(C)C)NC(=O)[C@H]([C@@H](C)CC)NC(=O)[C@H](CCCCN)NC(=O)[C@@H]1CCCN1C3=O)C(=O)N1CCC[C@H]1C(=O)NCC(=O)N[C@@H](C)C(=O)N2` (cyclo(ACICRGNGYCGSGSDGGVCPKIL[X2]CRRDSDCPG); disulfide 2-19, 4-25, 10-31), for which the figures for the Ki (in test [1]; in test [2]; at Neutrophil elastase) were 0.029 nM, 1600 nM and “Not Active”, respectively.
As to `CC[C@H](C)[C@@H]1NC(=O)[C@@H]2CSSC[C@@H]3NC(=O)[C@H](C(C)C)NC(=O)CNC(=O)CNC(=O)[C@H](CC(=O)O)NC(=O)[C@H](CO)NC(=O)CNC(=O)[C@H](CO)NC(=O)CNC(=O)[C@@H]4CSSC[C@H](NC(=O)[C@H](CC(=O)O)NC(=O)[C@H](CO)NC(=O)[C@H](CC(=O)O)NC(=O)[C@H](CCCNC(=N)N)NC(=O)[C@H](CCCNC(=N)N)NC(=O)[C@H](CSSC[C@H](NC1=O)C(=O)N[C@@H](CCCNC(=N)N)C(=O)NCC(=O)N[C@@H](CC(N)=O)C(=O)NCC(=O)N[C@@H](Cc1ccc(O)cc1)C(=O)N4)NC(=O)[C@@H](CCCNC(=N)N)C(=O)[C@H](CCC(N)=O)NC(=O)[C@H](CC(C)C)NC(=O)[C@H]([C@@H](C)CC)NC(=O)[C@H](CCCNC(=N)N)NC(=O)[C@@H]1CCCN1C3=O)C(=O)N1CCC[C@H]1C(=O)NCC(=O)N[C@@H](C)C(=O)N2` (cyclo(ACICRGNGYCGSGSDGGVCPRIL[X2]CRRDSDCPG); disulfide 2-19, 4-25, 10-31), the figures for the Ki (in test [1]; in test [2]; at Neutrophil elastase) were 0.085 nM, 100 nM and “Not Active”, respectively.
On to `CC[C@H](C)[C@@H]1NC(=O)[C@@H]2CSSC[C@@H]3NC(=O)[C@H](C(C)C)NC(=O)CNC(=O)CNC(=O)[C@H](CC(=O)O)NC(=O)[C@H](CO)NC(=O)CNC(=O)[C@H](CO)NC(=O)CNC(=O)[C@@H]4CSSC[C@H](NC(=O)[C@H](CC(=O)O)NC(=O)[C@H](CO)NC(=O)[C@H](CC(=O)O)NC(=O)[C@H](CCCNC(=N)N)NC(=O)[C@H](CCCNC(=N)N)NC(=O)[C@H](CSSC[C@H](NC1=O)C(=O)N[C@@H](CCCNC(=N)N)C(=O)NCC(=O)N[C@@H](CC(N)=O)C(=O)NCC(=O)N[C@@H](Cc1ccc(O)cc1)C(=O)N4)NC(=O)[C@@H](CCCNC(=N)N)C(=O)[C@H](CCC(N)=O)NC(=O)[C@H](CC(C)C)NC(=O)[C@H]([C@@H](C)CC)NC(=O)[C@H](Cc1ccccc1)NC(=O)[C@@H]1CCCN1C3=O)C(=O)N1CCC[C@H]1C(=O)NCC(=O)N[C@@H](C)C(=O)N2` (cyclo(ACICRGNGYCGSGSDGGVCPFIL[X2]CRRDSDCPG); disulfide 2-19, 4-25, 10-31), for which the figures for the Ki (in test [1]; in test [2]; on Neutrophil elastase (read-out: Ki)) were over 0.105 nM, over 50000 nM and over 7500 nM, respectively.
In the case of `CC[C@H](C)[C@@H]1NC(=O)[C@@H]2CSSC[C@@H]3NC(=O)[C@H](C(C)C)NC(=O)CNC(=O)NC(=O)[C@H](CO)NC(=O)CNC(=O)[C@H](CO)NC(=O)CNC(=O)[C@@H]4CSSC[C@H](NC(=O)[C@H](CC(=O)O)NC(=O)[C@H](CO)NC(=O)[C@H](CC(=O)O)NC(=O)[C@H](CCCNC(=N)N)NC(=O)[C@H](CCCNC(=N)N)NC(=O)[C@H](CSSC[C@H](NC1=O)C(=O)N[C@@H](CCCNC(=N)N)C(=O)NCC(=O)N[C@@H](CC(N)=O)C(=O)NCC(=O)N[C@@H](Cc1ccc(O)cc1)C(=O)N4)NC(=O)[C@@H](CCCNC(=N)N)C(=O)[C@H](CCC(N)=O)NC(=O)[C@H](CC(C)C)NC(=O)[C@H]([C@@H](C)CC)NC(=O)[C@H](CCCCN)NC(=O)[C@@H]1CCCN1C3=O)C(=O)N1CCC[C@H]1C(=O)NCC(=O)N[C@@H](C)C(=O)N2` (cyclo(ACICRGNGYCGSG[X3]GVCPKIL[X2]CRRDSDCPG); disulfide 2-17, 4-23, 10-29), the Ki in test [1] amounted to 4.3 nM; in test [2] it was 600 nM.
On the same counts, the results for `CC[C@H](C)[C@@H]1NC(=O)[C@H](CCCCN)NC(=O)[C@@H]2CCCN2C(=O)[C@@H](NC(=O)[C@@H](N)C(C)C)CSSC[C@@H]2NC(=O)CNC(=O)[C@H](C)NC(=O)[C@H](CC(C)C)NC(=O)[C@@H]3CSSC[C@@H](C(=O)NCC(=O)N[C@@H](CO)C(=O)NCC(=O)O)NC(=O)[C@H](Cc4ccc(O)cc4)NC(=O)CNC(=O)[C@H](CC(N)=O)NC(=O)CNC(=O)[C@H](CCCNC(=N)N)NC(=O)[C@H](CSSC[C@H](NC(=O)[C@@H](CCCNC(=N)N)C(=O)[C@H](CCC(N)=O)NC(=O)[C@H](CC(C)C)NC1=O)C(=O)N[C@@H](CCCNC(=N)N)C(=O)N[C@@H](CCCNC(=N)N)C(=O)N[C@@H](CC(=O)O)C(=O)N[C@@H](CO)C(=O)N[C@@H](CC(=O)O)C(=O)N3)NC(=O)[C@H](CC(C)C)NC2=O` (H-VCPKIL[X2]CRRDSDCLAGCLCRGNGYCGSG-OH; disulfide 2-18, 8-20, 14-26) are 99 nM and 110 nM.
With `CC[C@H](C)[C@@H]1NC(=O)[C@H](CCCCN)NC(=O)[C@@H]2CCCN2C(=O)[C@@H]2CSSC[C@@H]3NC(=O)CNC(=O)[C@H](C)NC(=O)[C@H](CC(C)C)NC(=O)[C@@H]4CSSC[C@H](NC(=O)[C@H](Cc5ccc(O)cc5)NC(=O)CNC(=O)[C@H](CC(N)=O)NC(=O)CNC(=O)[C@H](CCCNC(=N)N)NC(=O)[C@H](CSSC[C@H](NC(=O)[C@@H](CCCNC(=N)N)C(=O)[C@H](CCC(N)=O)NC(=O)[C@H](CC(C)C)NC1=O)C(=O)N[C@@H](CCCNC(=N)N)C(=O)N[C@@H](CCCNC(=N)N)C(=O)N[C@@H](CC(=O)O)C(=O)N[C@@H](CO)C(=O)N[C@@H](CC(=O)O)C(=O)N4)NC(=O)[C@H](CC(C)C)NC3=O)C(=O)NCC(=O)N[C@@H](CO)C(=O)NCC(=O)N[C@@H](C(C)C)C(=O)N2` (cyclo(AGCLCRGNGYCGSGVCPKIL[X2]CRRDSDCL); disulfide 3-16, 5-22, 11-28), the Ki in test [1] worked out at 48 nM; in test [2], 33 nM.
As for `CC[C@H](C)[C@@H]1NC(=O)[C@@H]2CSSC[C@@H]3NC(=O)[C@H](C(C)C)NC(=O)CNC(=O)CNC(=O)[C@H](CC(=O)O)NC(=O)[C@H](CO)NC(=O)CNC(=O)[C@H](CO)NC(=O)CNC(=O)[C@@H]4CSSC[C@H](NC(=O)[C@H](CC(=O)O)NC(=O)[C@H](CO)NC(=O)[C@H](CC(=O)O)NC(=O)[C@H](CCCNC(=N)N)NC(=O)[C@H](CCCNC(=N)N)NC(=O)[C@H](CSSC[C@H](NC1=O)C(=O)N[C@@H](CCCNC(=N)N)C(=O)NCC(=O)N[C@@H](CC(N)=O)C(=O)NCC(=O)N[C@@H](Cc1ccc(O)cc1)C(=O)N4)NC(=O)[C@@H](CCCNC(=N)N)C(=O)[C@H](CCC(N)=O)NC(=O)[C@H](CC(C)C)NC(=O)[C@@H]1CCCN1C(=O)[C@H](C(C)C)NC(=O)[C@@H]1CCCN1C3=O)C(=O)N1CCC[C@H]1C(=O)NCC(=O)N[C@@H](C)C(=O)N2` (cyclo(ACICRGNGYCGSGSDGGVCPVPL[X2]CRRDSDCPG); disulfide 2-19, 4-25, 10-31), the Ki is over 50000 nM in test [2] and 520 nM at Neutrophil elastase (read-out: Ki).
As for `CC[C@H](C)[C@@H]1NC(=O)[C@@H]2CSSC[C@@H]3NC(=O)[C@H](C(C)C)NC(=O)CNC(=O)CNC(=O)[C@H](CC(=O)O)NC(=O)[C@H](CO)NC(=O)CNC(=O)[C@H](CO)NC(=O)CNC(=O)[C@@H]4CSSC[C@H](NC(=O)[C@H](CC(=O)O)NC(=O)[C@H](CO)NC(=O)[C@H](CC(=O)O)NC(=O)[C@H](CCCNC(=N)N)NC(=O)[C@H](CCCNC(=N)N)NC(=O)[C@H](CSSC[C@H](NC1=O)C(=O)N[C@@H](CCCNC(=N)N)C(=O)NCC(=O)N[C@@H](CC(N)=O)C(=O)NCC(=O)N[C@@H](Cc1ccc(O)cc1)C(=O)N4)NC(=O)[C@@H](CCCNC(=N)N)C(=O)[C@H](CCC(N)=O)NC(=O)[C@H](CC(C)C)NC(=O)[C@@H]1CCCN1C(=O)[C@@H](C(C)C)NC(=O)[C@H](C)NC3=O)C(=O)N1CCC[C@H]1C(=O)NCC(=O)N[C@@H](C)C(=O)N2`, the Ki in test [2] is over 50000 nM; on Neutrophil elastase (read-out: Ki) it was 500 nM.
As for `CC[C@H](C)[C@@H]1NC(=O)[C@H](CCCNC(=N)N)NC(=O)[C@@H]2CCCN2C(=O)[C@@H]2CSSC[C@@H]3NC(=O)CNC(=O)[C@H](C)NC(=O)[C@H](CC(C)C)NC(=O)[C@@H]4CSSC[C@H](NC(=O)[C@H](Cc5ccc(O)cc5)NC(=O)CNC(=O)[C@H](CC(N)=O)NC(=O)CNC(=O)[C@H](CCCNC(=N)N)NC(=O)[C@H](CSSC[C@H](NC(=O)[C@@H](CCCNC(=N)N)C(=O)[C@H](CCC(N)=O)NC(=O)[C@H](CC(C)C)NC1=O)C(=O)N[C@@H](CCCNC(=N)N)C(=O)N[C@@H](CCCNC(=N)N)C(=O)N[C@@H](CC(=O)O)C(=O)N[C@@H](CO)C(=O)N[C@@H](CC(=O)O)C(=O)N4)NC(=O)[C@H](CC(C)C)NC3=O)C(=O)NCC(=O)N[C@@H](CO)C(=O)NCC(=O)N[C@@H](C(C)C)C(=O)N2` (cyclo(AGCLCRGNGYCGSGVCPRIL[X2]CRRDSDCL); disulfide 3-16, 5-22, 11-28), the values for the Ki in test [1] and in test [2] were 8.8 nM and 28 nM, respectively.

The Ki is the equilibrium dissociation constant of an inhibitor or competing ligand from its target.
